Legend:
Mus musculus [1] = experiment: Mean survival time against trophozoite induced Plasmodium berghei in mice minus control was evaluated at a dose 40 mg/kg.; assay type: functional
Mus musculus [2] = experiment: Mean survival time against trophozoite induced Plasmodium berghei in mice minus control was evaluated at a dose 640 mg/kg; 9 survived out of 15 animals at 60 days postinjection.; assay type: functional, organism-based; parameters: dose 640 mg/kg
Mus musculus [3] = experiment: Mean survival time against trophozoite induced Plasmodium berghei in mice minus control was evaluated at a dose 80 mg/kg; 1 survived out of 5 animals at 60 days postinjection; assay type: functional, organism-based; parameters: dose 80 mg/kg
Mus musculus [4] = experiment: Mean survival time against trophozoite induced Plasmodium berghei in mice minus control was evaluated at a dose 20 mg/kg.; assay type: functional
Mus musculus [5] = experiment: Mean survival time against trophozoite induced Plasmodium berghei in mice minus control was evaluated at a dose 320 mg/kg; 3 survived out of 5 animals at 60 days postinjection; assay type: functional, organism-based; parameters: dose 320 mg/kg
Mus musculus [6] = experiment: Mean survival time against trophozoite induced Plasmodium berghei in mice minus control was evaluated at a dose 160 mg/kg; 6 survived out of 15 animals at 60 days postinjection; assay type: functional, organism-based; parameters: dose 160 mg/kg
Mus musculus [7] = experiment: Mean survival time against trophozoite induced Plasmodium berghei in mice minus control was evaluated at a dose 40 mg/kg; 1 cured at 60 days postinjection.; assay type: functional, organism-based; parameters: dose 40 mg/kg
Mus musculus [8] = experiment: Mean survival time against trophozoite induced Plasmodium berghei in mice minus control was evaluated at a dose 320 mg/kg; 2 cured and 3 toxic death; assay type: functional, organism-based; parameters: dose 320 mg/kg
Mus musculus [9] = experiment: Mean survival time against trophozoite induced Plasmodium berghei in mice minus control was evaluated at a dose 1.25 mg/kg.; assay type: functional
Mus musculus [10] = experiment: Mean survival time against trophozoite induced Plasmodium berghei in mice minus control was evaluated at a dose 160 mg/kg; 5 cured at 60 days postinjection.; assay type: functional, organism-based; parameters: dose 160 mg/kg
Mus musculus [11] = experiment: Mean survival time against trophozoite induced Plasmodium berghei in mice minus control was evaluated at a dose 640 mg/kg; 1 cured and 2 toxic death; assay type: functional, organism-based; parameters: dose 640 mg/kg
Mus musculus [12] = experiment: Mean survival time against trophozoite induced Plasmodium berghei in mice minus control was evaluated at a dose 80 mg/kg; 3 cured at 60 days postinjection.; assay type: functional, organism-based; parameters: dose 80 mg/kg
Mus musculus [13] = experiment: Mean survival time against trophozoite induced Plasmodium berghei in mice minus control was evaluated at a dose 2.5 mg/kg.; assay type: functional
Mus musculus [14] = experiment: Mean survival time against trophozoite induced Plasmodium berghei in mice minus control was evaluated at a dose 5 mg/kg.; assay type: functional
Mus musculus [15] = experiment: Mean survival time against trophozoite induced Plasmodium berghei in mice minus control was evaluated at a dose 10 mg/kg.; assay type: functional
Mus musculus [16] = experiment: Mean survival time against trophozoite induced Plasmodium berghei in mice minus control was evaluated at a dose 40 mg/kg; 4 survived out of 10 animals at 60 days postinjection.; assay type: functional, organism-based; parameters: dose 40 mg/kg
Mus musculus [17] = experiment: Mean survival time against trophozoite induced Plasmodium berghei in mice minus control was evaluated at a dose 640 mg/kg; 5 survived out of 5 animals at 60 days postinjection.; assay type: functional, organism-based; parameters: dose 640 mg/kg
Mus musculus [18] = experiment: Mean survival time against trophozoite induced Plasmodium berghei in mice minus control was evaluated at a dose 160 mg/kg; 10 survived out of 10 animals at 60 days postinjection.; assay type: functional, organism-based; parameters: dose 160 mg/kg
Mus musculus [19] = experiment: Mean survival time against trophozoite induced Plasmodium berghei in mice minus control was evaluated at a dose 320 mg/kg; 10 survived out of 10 animals at 60 days postinjection.; assay type: functional, organism-based; parameters: dose 320 mg/kg
Mus musculus [20] = experiment: Mean survival time against trophozoite induced Plasmodium berghei in mice minus control was evaluated at a dose 80 mg/kg; 10 survived out of 10 animals at 60 days postinjection.; assay type: functional, organism-based; parameters: dose 80 mg/kg
Mus musculus [21] = experiment: Mean survival time against trophozoite induced Plasmodium berghei in mice minus control was evaluated at a dose 160 mg/kg; 5 survived out of 5 animals at 60 days postinjection.; assay type: functional, organism-based; parameters: dose 160 mg/kg
Mus musculus [22] = experiment: Mean survival time against trophozoite induced Plasmodium berghei in mice minus control was evaluated at a dose 80 mg/kg; assay type: functional
Mus musculus [23] = experiment: Mean survival time against trophozoite induced Plasmodium berghei in mice minus control was evaluated at a dose 320 mg/kg; 5 survived out of 5 animals at 60 days postinjection.; assay type: functional, organism-based; parameters: dose 320 mg/kg
Mus musculus [24] = experiment: Mean survival time against trophozoite induced Plasmodium berghei in mice minus control was evaluated at a dose 20 mg/kg; 8 survived out of 10 animals at 60 days postinjection.; assay type: functional, organism-based; parameters: dose 20 mg/kg
Mus musculus [25] = experiment: Mean survival time against trophozoite induced Plasmodium berghei in mice minus control was evaluated at a dose 80 mg/kg; 5 survived out of 5 animals at 60 days postinjection.; assay type: functional, organism-based; parameters: dose 80 mg/kg
Mus musculus [26] = experiment: Mean survival time against trophozoite induced Plasmodium berghei in mice minus control was evaluated at a dose 40 mg/kg; 10 survived out of 10 animals at 60 days postinjection.; assay type: functional, organism-based; parameters: dose 40 mg/kg
Mus musculus [27] = experiment: Mean survival time against trophozoite induced Plasmodium berghei in mice minus control was evaluated at a dose 320 mg/kg; 2 survived out of 5 animals at 60 days postinjection.; assay type: functional, organism-based; parameters: dose 320 mg/kg
Mus musculus [28] = experiment: Mean survival time against trophozoite induced Plasmodium berghei in mice minus control was evaluated at a dose 160 mg/kg; 4 survived out of 10 animals at 60 days postinjection.; assay type: functional, organism-based; parameters: dose 160 mg/kg
Mus musculus [29] = experiment: Mean survival time against trophozoite induced Plasmodium berghei in mice minus control was evaluated at a dose 80 mg/kg.; assay type: functional
Mus musculus [30] = experiment: Mean survival time against trophozoite induced Plasmodium berghei in mice minus control was evaluated at a dose 640 mg/kg; 7 survived out of 10 animals at 60 days postinjection.; assay type: functional, organism-based; parameters: dose 640 mg/kg
Mus musculus [31] = experiment: Mean survival time against trophozoite induced Plasmodium berghei in mice minus control was evaluated at a dose 160 mg/kg; 5 survived occurred on days 2-5 after injection; assay type: functional, organism-based; parameters: dose 160 mg/kg
Mus musculus [32] = experiment: Mean survival time against trophozoite induced Plasmodium berghei in mice minus control was evaluated at a dose 80 mg/kg; 2 survived occurred on days 2-5 after injection.; assay type: functional
Mus musculus [33] = experiment: Mean survival time against trophozoite induced Plasmodium berghei in mice minus control was evaluated at a dose 80 mg/kg; 2 survived occurred on days 2-5 after injection; assay type: functional, organism-based; parameters: dose 80 mg/kg
Mus musculus [34] = experiment: Mean survival time against trophozoite induced Plasmodium berghei in mice minus control was evaluated at a dose 320 mg/kg; 2 toxic death and 3 survived occurred on days 2-5 after injection; assay type: functional, organism-based; parameters: dose 320 mg/kg
Mus musculus [35] = experiment: Mean survival time against trophozoite induced Plasmodium berghei in mice minus control was evaluated at a dose 40 mg/kg; 1 survived occurred on days 2-5 after injection; assay type: functional
Mus musculus [36] = experiment: Mean survival time against trophozoite induced Plasmodium berghei in mice minus control was evaluated at a dose 640 mg/kg; 5 toxic death occurred on days 2-5 after injection; assay type: functional, organism-based; parameters: dose 640 mg/kg
Mus musculus [37] = experiment: Mean survival time against trophozoite induced Plasmodium berghei in mice minus control was evaluated at a dose 160 mg/kg.; assay type: functional
Mus musculus [38] = experiment: Mean survival time against trophozoite induced Plasmodium berghei in mice minus control was evaluated at a dose 640 mg/kg; 5 toxic death occurred out of 5 animals on days 2-5 after injection.; assay type: functional, organism-based; parameters: dose 640 mg/kg

## CN(Cc1cccc(Br)c1)c1ccc2nc(N)nc(N)c2n1
Mus musculus [1]
  Delta MST: 9.8 days
Mus musculus [2]
  Delta MST: Survivals 9/15
Mus musculus [3]
  Delta MST: Survivals 1/5
Mus musculus [4]
  Delta MST: 9.1 days
Mus musculus [5]
  Delta MST: Survivals 3/5
Mus musculus [6]
  Delta MST: Survivals 6/15

## CCc1nc(N)nc(N)c1-c1ccc(Cl)cc1 [PYRIMETHAMINE]
Mus musculus [7]
  Delta MST: Survivals 1
Mus musculus [8]
  Delta MST: Survivals 2 Toxic deaths 3
Mus musculus [9]
  Delta MST: 3.1 days
Mus musculus [10]
  Delta MST: Survivals 5
Mus musculus [11]
  Delta MST: Survivals 1 Toxic Deaths 2
Mus musculus [12]
  Delta MST: Survivals 3
Mus musculus [13]
  Delta MST: 4.7 days
Mus musculus [14]
  Delta MST: 5.3 days
Mus musculus [4]
  Delta MST: 7.7 days
Mus musculus [15]
  Delta MST: 6.1 days

## Nc1nc(N)c2cc(N(C=O)Cc3ccc(Cl)c(Cl)c3)ccc2n1
Mus musculus [16]
  Delta MST: Survivals 4/10
Mus musculus [17]
  Delta MST: Survivals 5/5
Mus musculus [18]
  Delta MST: Survivals 10/10
Mus musculus [19]
  Delta MST: Survivals 10/10
Mus musculus [4]
  Delta MST: 8.2 days
Mus musculus [15]
  Delta MST: 4.3 days
Mus musculus [20]
  Delta MST: Survivals 10/10

## Nc1nc(N)c2nc(N3CCCCC3Cc3ccccc3)ccc2n1 (centres undefined)
Mus musculus [1]
  Delta MST: 4.9 days
Mus musculus [21]
  Delta MST: Survivals 5/5
Mus musculus [22]
  Delta MST: 8.2 days
Mus musculus [19]
  Delta MST: Survivals 10/10
Mus musculus [4]
  Delta MST: 3 days

## CN(Cc1ccc(Cl)c(Cl)c1)c1ccc2nc(N)nc(N)c2n1
Mus musculus [23]
  Delta MST: Survivals 5/5
Mus musculus [24]
  Delta MST: Survivals 8/10
Mus musculus [9]
  Delta MST: 2.9 days
Mus musculus [21]
  Delta MST: Survivals 5/5
Mus musculus [13]
  Delta MST: 4.3 days
Mus musculus [14]
  Delta MST: 9.1 days
Mus musculus [15]
  Delta MST: 11.9 days
Mus musculus [25]
  Delta MST: Survivals 5/5
Mus musculus [26]
  Delta MST: Survivals 10/10

## Nc1nc(N)c2nc(N3CCCCC3Cc3ccc(Cl)cc3)ccc2n1 (centres undefined)
Mus musculus [27]
  Delta MST: Survivals 2/5
Mus musculus [28]
  Delta MST: Survivals 4/10
Mus musculus [1]
  Delta MST: 5.1 days
Mus musculus [29]
  Delta MST: 9.1 days
Mus musculus [30]
  Delta MST: Survivals 7/10
Mus musculus [4]
  Delta MST: 2.9 days

## CC1(C)N=C(N)N=C(N)N1c1ccc(Cl)cc1.Cl [CHLORCYCLOGUANIL HYDROCHLORIDE]
Mus musculus [31]
  Delta MST: Survivals 5
Mus musculus [32]
  Delta MST: 21.6 days
Mus musculus [33]
  Delta MST: Survivals 2
Mus musculus [34]
  Delta MST: Survivals 3 Toxic Deaths 2
Mus musculus [4]
  Delta MST: 7.9 days
Mus musculus [35]
  Delta MST: 13.4 days
Mus musculus [15]
  Delta MST: 4.9 days
Mus musculus [36]
  Delta MST: Toxic Deaths 5

## Nc1nc(N)c2nc(N3CCCCC3)ccc2n1
Mus musculus [37]
  Delta MST: 0.4 days
Mus musculus [1]
  Delta MST: 0.3 days
Mus musculus [38]
  Delta MST: Toxic Deaths 5/5

Reference: ChEMBL document CHEMBL1122946, “Folate antagonists. 21. Synthesis and antimalarial properties of 2,4-diamino-6-(benzylamino)pyrido[3,2-d]pyrimidines” (1985)
